Data: US20160089391A1, “Molecular Targets for Cardiovascular Disease” (Temple University-of the Commonwealth System of Higher …, priority 2014, published 2016)

Biological target: T1, eNOS (Homo sapiens, UniProt P29474)
T1 construct: endogenous in cells; host or cells: HAECs (human aortic endothelial cells)
T1 sequence (P29474 2-1203 limits assumed): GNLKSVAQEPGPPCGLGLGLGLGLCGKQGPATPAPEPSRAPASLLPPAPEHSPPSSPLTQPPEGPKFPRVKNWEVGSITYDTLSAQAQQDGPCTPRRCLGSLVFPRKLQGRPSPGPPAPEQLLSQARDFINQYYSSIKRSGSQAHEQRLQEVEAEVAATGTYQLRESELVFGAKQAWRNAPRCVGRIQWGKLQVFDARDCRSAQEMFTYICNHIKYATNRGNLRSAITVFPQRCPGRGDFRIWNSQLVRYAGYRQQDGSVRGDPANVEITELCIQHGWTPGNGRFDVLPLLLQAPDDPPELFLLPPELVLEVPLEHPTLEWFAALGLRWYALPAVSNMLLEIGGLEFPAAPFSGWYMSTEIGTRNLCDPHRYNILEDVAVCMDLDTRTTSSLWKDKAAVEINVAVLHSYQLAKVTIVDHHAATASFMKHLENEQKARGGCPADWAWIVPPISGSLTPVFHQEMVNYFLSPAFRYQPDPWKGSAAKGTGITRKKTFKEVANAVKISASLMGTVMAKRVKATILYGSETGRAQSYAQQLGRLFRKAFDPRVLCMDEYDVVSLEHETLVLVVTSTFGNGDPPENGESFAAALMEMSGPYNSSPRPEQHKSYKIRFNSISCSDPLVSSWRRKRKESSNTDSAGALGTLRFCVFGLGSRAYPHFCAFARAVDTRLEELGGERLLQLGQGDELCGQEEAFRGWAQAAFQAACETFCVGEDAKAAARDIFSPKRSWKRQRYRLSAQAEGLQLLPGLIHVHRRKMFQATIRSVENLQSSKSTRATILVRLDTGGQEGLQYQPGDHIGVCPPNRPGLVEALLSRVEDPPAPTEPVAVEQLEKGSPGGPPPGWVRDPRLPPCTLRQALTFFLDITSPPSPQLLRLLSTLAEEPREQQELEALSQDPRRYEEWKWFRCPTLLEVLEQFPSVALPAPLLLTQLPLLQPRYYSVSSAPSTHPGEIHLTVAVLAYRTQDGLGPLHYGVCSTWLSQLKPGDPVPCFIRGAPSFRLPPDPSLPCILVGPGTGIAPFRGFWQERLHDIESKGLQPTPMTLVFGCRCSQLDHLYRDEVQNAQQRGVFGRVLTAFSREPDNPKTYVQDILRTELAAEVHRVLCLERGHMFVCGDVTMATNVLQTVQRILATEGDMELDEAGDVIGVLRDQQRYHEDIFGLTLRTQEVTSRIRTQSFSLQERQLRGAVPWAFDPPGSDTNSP
Experiment: eNOS activity in intact HAECs (3H-Arg to 3H-citrulline conversion)
Type: cell-based
Experimental: (FIG. 6A). Images of NO. Nitric oxide (NO) production in HAECs was measured by staining intact HAECs with NO marker DAF-FM. N^G-nitro-L-arginine methyl ester (L-NAME, 100 μmol/L, Sigma #N5751) was added in the last hour as a negative control. (FIG. 6B). Quantification of NO. (FIG. 6C). eNOS activity. Human aortic endothelial cells (HAECs) were cultured in EC medium which contains 5 mmol/L D-Glucose (D-Glu), and treated with DL-homocysteine (DL-Hcy, 500 μmol/L) and/or (D-Glu, 25 mmol) without or with MDL28170 (MDL) for 48 hrs, CTsiRNA or μ-calpsiRNA for 72 hrs. L-NAME (100 μmol/L) was added in the last hour. NO was measured by staining intact HAECs with NO marker (DAF-FM, 10 μmol/L, Sigma #D2321, 30 mins.). Endothelial nitric oxide synthase (eNOS) activity was assessed by measuring of ^3H-L-arginine conversion to ^3H-citrulline in intact HAECs. n=3, *p<0.05 vs control; †p<0.05 vs DL-Hcy-treated HAECs; ‡p<0.05 vs D-Glu-treated HAECs; #p<0.05 vs DL-Hcy/D-Glu-treated HAECs. DAF-FM, 4-Amino-5-methylamino-2′,7′-difluorescein; CTsiRNA, control siRNA; HG, hyperglycemia; HHcy, hyperhomocysteinemia; μ-calpsiRNA, μ-calpain siRNA.
HAECs treated with or without DL-Hcy and/or D-Glu for 48 hrs were stained with 4-Amino-5-Methylamino-2′,7′-Difluorofluorescein (DAF-FM). To explore the role of calpain, especially μ-calpain, the DL-Hcy/D-Glu-treated HAECs were also treated with MDL28170 (MDL, 20 μmol/L) and μ-calpain siRNA, respectively. HAECs treated with L-NAME (100 μmol/L) for 1 hr before DAF-FM staining were used as negative controls. eNOS activity in HAECs was determined by measuring the conversion of ^3H-Arg to ^3H-citrulline in intact cells as previous described (Jiang et al., 2005, Arterioscl Throm Vas 25:2515-2521).

[1] = HAECs, DL-Hcy 500 μmol/L and/or D-Glu 25 mmol/L for 48 hrs, relative to control

eNOS activity [1] [%]	Compound	eNOS activity (HHcy/HG (DL-Hcy/D-Glu)-treated HAECs, improved from 35% (MDL) or printed 26% (siRNA), MDL 20 μmol/L 48 hrs, siRNA 72 hrs) [%]
69	NC(CCS)C(=O)O (racemic) [DL-Hcy, DL-homocysteine]	
52	O=C[C@H](O)[C@@H](O)[C@H](O)[C@H](O)CO [D-Glu, D-glucose]	
	MDL28170	74
